From US20260048047A1, “SMALL-MOLECULE ACTIVATORS OF MYCOBACTERIUM TUBERCULOSIS ADENYLYL CYCLASE” (priority 2022, published 2026)
pEC50: −log10 of the molar value.

Test system: M. tuberculosis
Assay: Extracellular activity against M. tuberculosis in cholesterol media (Alamar Blue reduction assay)
Type: cell-based, Mycobacterium tuberculosis
Details: Mycobacterium tuberculosis, 240 h, 7H12-Cholesterol media, 10 days; read-out: Cholesterol broth: alamar blue--EC50

SMILES	pEC50
Cc1nonc1CC(=O)N1CCC(O)(c2nc(C3CCCCC3)no2)CC1 [Compound 75, 1-(4-(3-cyclohexyl-1,2,4-oxadiazol-5-yl)-4-hydroxypiperidin-1-yl)-2-(4-methyl-1,2,5-oxadiazol-3-yl)ethan-1-one]	< 5.00
Cc1nonc1CC(=O)N1CCC(c2nc(C3CCOCC3)no2)CC1 [Compound 76, 2-(4-methyl-1,2,5-oxadiazol-3-yl)-1-(4-(3-(tetrahydro-2H-pyran-4-yl)-1,2,4-oxadiazol-5-yl)piperidin-1-yl)ethan-1-one]	< 5.00
Cc1nonc1CC(=O)N1CCC(c2noc(C34CCC(CC3)C4)n2)CC1 [Compound 77, 1-(4-(5-(bicyclo[2.2.1]heptan-1-yl)-1,2,4-oxadiazol-3-yl)piperidin-1-yl)-2-(4-methyl-1,2,5-oxadiazol-3-yl)ethan-1-one]	< 4.60
Cc1nonc1CC(=O)N1CCC(c2nc(C34CCC(CC3)C4)no2)CC1 [Compound 78, 1-(4-(3-(bicyclo[2.2.1]heptan-1-yl)-1,2,4-oxadiazol-5-yl)piperidin-1-yl)-2-(4-methyl-1,2,5-oxadiazol-3-yl)ethan-1-one]	5.42
Cc1nonc1CC(=O)N1CCC(n2ccc(-c3ccccc3)n2)CC1 [Compound 79, 2-(4-methyl-1,2,5-oxadiazol-3-yl)-1-(4-(3-phenyl-1H-pyrazol-1-yl)piperidin-1-yl)ethan-1-one]	< 5.00
Cc1nonc1CC(=O)N1CCC(n2nnc(-c3ccccc3)n2)CC1 [Compound 80, 2-(4-methyl-1,2,5-oxadiazol-3-yl)-1-(4-(5-phenyl-2H-tetrazol-2-yl)piperidin-1-yl)ethan-1-one, reference compound]	5.80
Cc1nnn(C2CCN(C(=O)Cc3nonc3C)CC2)n1 [Compound 81, 2-(4-methyl-1,2,5-oxadiazol-3-yl)-1-(4-(5-methyl-2H-tetrazol-2-yl)piperidin-1-yl)ethan-1-one]	< 5.00
Cc1noc(C2CCN(C(=O)Cc3nonc3C)CC2)n1 [Compound 82, 1-(4-(3-methyl-1,2,4-oxadiazol-5-yl)piperidin-1-yl)-2-(4-methyl-1,2,5-oxadiazol-3-yl)ethan-1-one]	< 5.00
Cc1nonc1CC(=O)N1CCC(c2nc(C(C)C)no2)CC1 [Compound 83, 1-(4-(3-isopropyl-1,2,4-oxadiazol-5-yl)piperidin-1-yl)-2-(4-methyl-1,2,5-oxadiazol-3-yl)ethan-1-one]	< 5.00
Cc1nonc1CC(=O)N1CCC(c2nc(C3(C)CCCCC3)no2)CC1 [Compound 84, 2-(4-methyl-1,2,5-oxadiazol-3-yl)-1-(4-(3-(1-methylcyclohexyl)-1,2,4-oxadiazol-5-yl)piperidin-1-yl)ethan-1-one]	5.67
Cc1nonc1CC(=O)N1CCC(c2nc(C3(C)COC3)no2)CC1 [Compound 85, 2-(4-methyl-1,2,5-oxadiazol-3-yl)-1-(4-(3-(3-methyloxetan-3-yl)-1,2,4-oxadiazol-5-yl)piperidin-1-yl)ethan-1-one]	< 5.00
Cc1nonc1CC(=O)N1CCC(c2nc(C3CC3(C)C)no2)CC1 (stereo not drawn) [Compound 86, 1-(4-(3-(2,2-dimethylcyclopropyl)-1,2,4-oxadiazol-5-yl)piperidin-1-yl)-2-(4-methyl-1,2,5-oxadiazol-3-yl)ethan-1-one]	5.74
Cc1nonc1CC(=O)N1CCC(c2nc(C3CCC(C)(C)C3)no2)CC1 (stereo not drawn) [Compound 87, 1-(4-(3-(3,3-dimethylcyclopentyl)-1,2,4-oxadiazol-5-yl)piperidin-1-yl)-2-(4-methyl-1,2,5-oxadiazol-3-yl)ethan-1-one]	6.60
Cc1nonc1CC(=O)N1CCC(c2nc(C3CCC(C)(C)CC3)no2)CC1 [Compound 88, 1-(4-(3-(4,4-dimethylcyclohexyl)-1,2,4-oxadiazol-5-yl)piperidin-1-yl)-2-(4-methyl-1,2,5-oxadiazol-3-yl)ethan-1-one]	6.74
Cc1nonc1CC(=O)N1CCC(c2nc(C3CCCC(C)(C)C3)no2)CC1 (stereo not drawn) [Compound 89, 1-(4-(3-(3,3-dimethylcyclohexyl)-1,2,4-oxadiazol-5-yl)piperidin-1-yl)-2-(4-methyl-1,2,5-oxadiazol-3-yl)ethan-1-one]	6.29
Cc1nonc1CC(=O)N1CCC(c2noc(C34CC(C)(C3)C4)n2)CC1 [Compound 90, 2-(4-methyl-1,2,5-oxadiazol-3-yl)-1-(4-(5-(3-methylbicyclo[1.1.1]pentan-1-yl)-1,2,4-oxadiazol-3-yl)piperidin-1-yl)ethan-1-one]	5.69
COC(C)c1noc(C2CCN(C(=O)Cc3nonc3C)CC2)n1 (stereo not drawn) [Compound 91, 1-(4-(3-(1-methoxyethyl)-1,2,4-oxadiazol-5-yl)piperidin-1-yl)-2-(4-methyl-1,2,5-oxadiazol-3-yl)ethan-1-one]	< 5.00
COCc1noc(C2CCN(C(=O)Cc3nonc3C)CC2)n1 [Compound 92, 1-(4-(3-(methoxymethyl)-1,2,4-oxadiazol-5-yl)piperidin-1-yl)-2-(4-methyl-1,2,5-oxadiazol-3-yl)ethan-1-one]	< 5.00

SMILES	pEC50
Cc1nonc1CC(=O)N1CCC(c2nc(-c3ccc(Cl)cc3Cl)no2)CC1 [Compound 94, 1-(4-(3-(2,4-dichlorophenyl)-1,2,4-oxadiazol-5-yl)piperidin-1-yl)-2-(4-methyl-1,2,5-oxadiazol-3-yl)ethan-1-one]	6.84
Cc1nonc1CC(=O)N1CCC(c2nc(-c3ccc(Cl)c(Cl)c3)no2)CC1 [Compound 95, 1-(4-(3-(3,4-dichlorophenyl)-1,2,4-oxadiazol-5-yl)piperidin-1-yl)-2-(4-methyl-1,2,5-oxadiazol-3-yl)ethan-1-one]	7.19
Cc1nonc1CC(=O)N1CCC(O)(c2nc(-c3ccc(Cl)c(Cl)c3)no2)CC1 [Compound 96, 1-(4-(3-(3,4-dichlorophenyl)-1,2,4-oxadiazol-5-yl)-4-hydroxypiperidin-1-yl)-2-(4-methyl-1,2,5-oxadiazol-3-yl)ethan-1-one]	6.21
Cc1nonc1CC(=O)N1CCC(n2nnc(-c3ccc(Cl)cc3)n2)CC1 [Compound 97, 1-(4-(5-(4-chlorophenyl)-2H-tetrazol-2-yl)piperidin-1-yl)-2-(4-methyl-1,2,5-oxadiazol-3-yl)ethan-1-one]	6.83
Cc1nonc1CC(=O)N1CCC(c2nc(-c3ccc(Cl)cc3)no2)CC1 [Compound 98, 1-(4-(3-(4-chlorophenyl)-1,2,4-oxadiazol-5-yl)piperidin-1-yl)-2-(4-methyl-1,2,5-oxadiazol-3-yl)ethan-1-one]	6.94
Cc1nonc1CC(=O)N1CCC(c2nc(-c3cccc(Cl)c3)no2)CC1 [Compound 99, 1-(4-(3-(3-chlorophenyl)-1,2,4-oxadiazol-5-yl)piperidin-1-yl)-2-(4-methyl-1,2,5-oxadiazol-3-yl)ethan-1-one]	6.28
Cc1nonc1CC(=O)N1CCC(c2nc(C3CCC(C(F)(F)F)CC3)no2)CC1 (stereo not drawn) [Compound 100, 2-(4-methyl-1,2,5-oxadiazol-3-yl)-1-(4-(3-(4-(trifluoromethyl)cyclohexyl)-1,2,4-oxadiazol-5-yl)piperidin-1-yl)ethan-1-one]	6.16
Cc1nonc1CC(=O)N1CCC(c2nc(-c3ccc(Cl)c(OC(F)(F)F)c3)no2)CC1 [Compound 101]	6.14
Cc1nonc1CC(=O)N1CCC(c2nc(-c3ccc(OC(F)(F)F)cc3)no2)CC1 [Compound 102, 2-(4-methyl-1,2,5-oxadiazol-3-yl)-1-(4-(3-(4-(trifluoromethoxy)phenyl)-1,2,4-oxadiazol-5-yl)piperidin-1-yl)ethan-1-one]	6.78
Cc1nonc1CC(=O)N1CCC(c2nc(-c3cccc(OC(F)(F)F)c3)no2)CC1 [Compound 103, 2-(4-methyl-1,2,5-oxadiazol-3-yl)-1-(4-(3-(3-(trifluoromethoxy)phenyl)-1,2,4-oxadiazol-5-yl)piperidin-1-yl)ethan-1-one]	6.42
Cc1nonc1CC(=O)N1CCC(c2nc(-c3ccccc3OC(F)(F)F)no2)CC1 [Compound 104, 2-(4-methyl-1,2,5-oxadiazol-3-yl)-1-(4-(3-(2-(trifluoromethoxy)phenyl)-1,2,4-oxadiazol-5-yl)piperidin-1-yl)ethan-1-one]	5.53
Cc1nonc1CC(=O)N1CCC(c2nc(-c3ccc(Cl)c(C(F)(F)F)c3)no2)CC1 [Compound 105, 1-(4-(3-(4-chloro-3-(trifluoromethyl)phenyl)-1,2,4-oxadiazol-5-yl)piperidin-1-yl)-2-(4-methyl-1,2,5-oxadiazol-3-yl)ethan-1-one]	6.13
Cc1nonc1CC(=O)N1CCC(c2nc(-c3ccc(C(F)(F)F)cc3)no2)CC1 [Compound 106, 2-(4-methyl-1,2,5-oxadiazol-3-yl)-1-(4-(3-(4-(trifluoromethyl)phenyl)-1,2,4-oxadiazol-5-yl)piperidin-1-yl)ethan-1-one]	6.12
Cc1nonc1CC(=O)N1CCC(c2nc(-c3ccc(OC(F)F)cc3)no2)CC1 [Compound 108, 1-(4-(3-(4-(difluoromethoxy)phenyl)-1,2,4-oxadiazol-5-yl)piperidin-1-yl)-2-(4-methyl-1,2,5-oxadiazol-3-yl)ethan-1-one]	6.15
Cc1nonc1CC(=O)N1CCC(c2nc(C3CCC(F)(F)C3)no2)CC1 (stereo not drawn) [Compound 109, 1-(4-(3-(3,3-difluorocyclopentyl)-1,2,4-oxadiazol-5-yl)piperidin-1-yl)-2-(4-methyl-1,2,5-oxadiazol-3-yl)ethan-1-one]	5.49
Cc1nonc1CC(=O)N1CCC(c2nc(C3CCC(F)(F)CC3)no2)CC1 [Compound 110, 1-(4-(3-(4,4-difluorocyclohexyl)-1,2,4-oxadiazol-5-yl)piperidin-1-yl)-2-(4-methyl-1,2,5-oxadiazol-3-yl)ethan-1-one]	6.01
Cc1nonc1CC(=O)N1CCC(O)(c2nc(C3CCC(F)(F)CC3)no2)CC1 [Compound 111, 1-(4-(3-(4,4-difluorocyclohexyl)-1,2,4-oxadiazol-5-yl)-4-hydroxypiperidin-1-yl)-2-(4-methyl-1,2,5-oxadiazol-3-yl)ethan-1-one]	< 5.00
Cc1nonc1CC(=O)N1CCC(c2nc(C3CCCC(F)(F)C3)no2)CC1 (stereo not drawn) [Compound 112, 1-(4-(3-(3,3-difluorocyclohexyl)-1,2,4-oxadiazol-5-yl)piperidin-1-yl)-2-(4-methyl-1,2,5-oxadiazol-3-yl)ethan-1-one]	5.57
